Residues, ends and D or L forms follow the SMILES beside them.
Key:
[1] = test system: condensates formed by mEGFP-TRIM66 and mCherry-HP1γ in U2OS cells; assay: Live-cell imaging of condensates before and after 1,6-hexanediol; assay type: cell-based; conditions: 10% 1,6-hexanediol for 5 min, 10 independent fields from one cell dish
Protocol: U2OS cells and HeLa cells were cultured in high-glucose DMEM supplemented with 10% fetal bovine serum and 1% penicillin-streptomycin at 37 °C in a humidified incubator containing 5% CO2. Following the manufacturer's instructions, cells were transfected with plasmid DNA using Lipofectamine 3000 (Thermo Fisher Scientific).
Genes encoding human TRIM66 or its constructs were cloned into the pmEGFP-C3 (Clontech) vector with an N-terminal mEGFP tag or the Flag vector with an N-terminal Flag tag. Genes encoding human HP1γ or HP1γ^L172A/W174A were cloned into the pcDNA3.1 vector with an N-terminal mCherry tag.
U2OS cells were cultured on 35-mm glass bottom dishes (Wuxi NEST Biotechnology Co., Ltd) coated with poly-D-lysine (Sigma-Aldrich). L-15 medium without phenol red (Thermo Fisher Scientific) was used during live-cell imaging to maintain a suitable environment for cell growth, and the temperature was kept at approximately 37 °C. Images were obtained with a Nikon Ti fluorescent inverted microscope with a 100× 1.4 NA objective; an XY Piezo Z stage (Applied Scientific Instrumentation); a spinning disk confocal unit (Yokogawa); and an electron multiplier CCD camera (Andor) controlled by IQ3 live-cell imaging software (Andor). Images collected with this system were 16-bit and consisted of 512 × 512 pixels, and the pixel size was 0.12 μm.

[2] = molecular target: T1, HP1γ-CSD^D131A (Homo sapiens, UniProt Q13185, D131A); assay: ITC, HP1γ-CSD D131A mutant; assay type: binding; conditions: 20 °C, 20 mmol/L Tris-HCl, 150 mmol/L NaCl, pH 7.5, Fig. 2G
T1 construct: HP1γ CSD (110–176aa) and TRIM66 PxVxL motif peptide(856–868aa), mixed at a molar ratio of 1:1.2; His6 (N); made in house
T1 sequence (Q13185 110-176 D131A): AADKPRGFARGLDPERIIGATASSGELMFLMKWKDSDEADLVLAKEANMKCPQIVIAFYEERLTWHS
Protocol: (§1) HP1γ_CSD (residues 110–176) was amplified by PCR from the human brain cDNA library and cloned into the pET-28a(+) expression vector (Novagen), contained an N-terminal 6× His tag and a tobacco etch virus (TEV) protease cleavage site. All mutants of HP1 were generated using a MutantBEST kit (Takara) and confirmed by DNA sequencing. All the proteins were expressed in Escherichia coli BL21 (DE3) cells (Novagen) cultured in LB medium at 37 °C to OD600 = 0.8, then shifted to 16 °C and induced with 0.5 mmol/L isopropyl β-D-1-thiogakactopyranoside (IPTG) for 24 h. Bacterial pellets were resuspended in Buffer A (20 mmol/L Tris-HCl, 500 mmol/L NaCl, pH 7.5) and lysed by sonication on ice. Then, soluble proteins were purified with a Ni^2+-chelating column (Cytiva Life Sciences) and a Superdex 75 column (Cytiva Life Sciences). After being cleaved by TEV protease overnight at 4 °C to remove the 6× His tag, the purified protein was concentrated to ∼10 mg/mL in Buffer B (20 mmol/L Tris-HCl, 150 mmol/L NaCl, pH 7.5) and stored at –80 °C. […]
(§2) Isothermal titration calorimetry (ITC) assays were performed using a MicroCal PEAQ-ITC calorimeter (Cytiva Life Sciences), and all experiments were carried out at 20 °C. […] The concentrations of the proteins were determined spectrophotometrically. […]

[3] = molecular target: T2, HP1γ-CSD^I165A (Homo sapiens, UniProt Q13185, I165A); assay: ITC, HP1γ-CSD I165A mutant (monomeric); assay type: binding; conditions: 20 °C, 20 mmol/L Tris-HCl, 150 mmol/L NaCl, pH 7.5, Fig. 2F
T2 construct: HP1γ CSD (110–176aa) and TRIM66 PxVxL motif peptide(856–868aa), mixed at a molar ratio of 1:1.2; His6 (N); made in house
T2 sequence (Q13185 110-176 I165A): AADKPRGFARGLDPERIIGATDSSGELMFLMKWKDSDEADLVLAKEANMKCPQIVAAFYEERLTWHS
Protocol: as §1, §2

[4] = molecular target: T3, HP1γ-CSD (WT) (Homo sapiens, UniProt Q13185); assay: Isothermal titration calorimetry (ITC), HP1γ-CSD wild type; assay type: binding; conditions: 20 °C, 20 mmol/L Tris-HCl, 150 mmol/L NaCl, pH 7.5, Fig. 2F
T3 construct: HP1γ CSD (110–176aa) and TRIM66 PxVxL motif peptide(856–868aa), mixed at a molar ratio of 1:1.2; made in house
T3 sequence (Q13185 110-176): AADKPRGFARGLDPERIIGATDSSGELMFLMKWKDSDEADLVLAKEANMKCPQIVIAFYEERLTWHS
Protocol: as §1, §2

[5] = molecular target: T4, HP1γ-CSD^W174A (Homo sapiens, UniProt Q13185, W174A); assay: ITC, HP1γ-CSD W174A mutant; assay type: binding; conditions: 20 °C, 20 mmol/L Tris-HCl, 150 mmol/L NaCl, pH 7.5, Fig. 2F
T4 construct: HP1γ CSD (110–176aa) and TRIM66 PxVxL motif peptide(856–868aa), mixed at a molar ratio of 1:1.2; His6 (N); made in house
T4 sequence (Q13185 110-176 W174A): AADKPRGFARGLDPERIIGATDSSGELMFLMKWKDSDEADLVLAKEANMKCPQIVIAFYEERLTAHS
Protocol: as §1, §2

[6] = molecular target: T5, HP1γ-CSD^R171A (Homo sapiens, UniProt Q13185, R171A); assay: ITC, HP1γ-CSD R171A mutant; assay type: binding; conditions: 20 °C, 20 mmol/L Tris-HCl, 150 mmol/L NaCl, pH 7.5, Fig. 2G
T5 construct: HP1γ CSD (110–176aa) and TRIM66 PxVxL motif peptide(856–868aa), mixed at a molar ratio of 1:1.2; His6 (N); made in house
T5 sequence (Q13185 110-176 R171A): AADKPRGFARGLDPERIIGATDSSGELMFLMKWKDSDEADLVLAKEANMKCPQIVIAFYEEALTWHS
Protocol: as §1, §2

[7] = molecular target: T6, HP1γ-CSD^L172A (Homo sapiens, UniProt Q13185, L172A); assay: ITC, HP1γ-CSD L172A mutant; assay type: binding; conditions: 20 °C, 20 mmol/L Tris-HCl, 150 mmol/L NaCl, pH 7.5, Fig. 2F
T6 construct: HP1γ CSD (110–176aa) and TRIM66 PxVxL motif peptide(856–868aa), mixed at a molar ratio of 1:1.2; His6 (N); made in house
T6 sequence (Q13185 110-176 L172A): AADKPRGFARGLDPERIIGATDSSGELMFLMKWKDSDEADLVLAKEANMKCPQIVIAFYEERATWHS
Protocol: as §1, §2

[8] = molecular target: HP1γ chromo shadow domain (CSD), residues 110-176 (human) (UniProt Q13185); assay: ITC; MicroCal PEAQ-ITC, 20 °C, Buffer B (20 mmol/L Tris-HCl, 150 mmol/L NaCl, pH 7.5); TRIM66 peptide titrated into HP1γ-CSD
Chain of HP1γ chromo shadow domain (CSD), residues 110-176 (human) (Q13185 110-176): as the sequence (Q13185 110-176) above

[9] = test system: HP1γ and nuclear extract (NE); assay: GST pull-down assay; assay type: binding, human; conditions: glutathione-Sepharose, 20 mmol/L Tris, 150 mmol/L NaCl, 1 mmol/L DTT, pH 7.5, 6 h at 4 °C; SDS-PAGE and western blot
Protocol: The gene for human TRIM66 full-length (residues 1–1050) was purchased from Life Technologies. All the DNA fragments for the human TRIM66 (residues 820–909, 840–909) were amplified by PCR. The proteins were cloned into a modified pGEX4T-1vector with a GST tag and TEV protease cleavage site. The proteins were expressed in Escherichia coli BL21 (DE3) cells and induced with 0.5 mmol/L IPTG for 24 h at 16 °C. The protein was purified by GST column (Cytiva Life Sciences), followed by TEV protease cleavage and size-exclusion chromatography on a Hiload 16/60 Superdex 200 column (Cytiva Life Sciences).
Nuclear extracts (NEs) were prepared as described with slight modifications. HeLa cells (1 × 10^8 cells/mL) were suspended with 4 mL of Buffer A comprising 0.5 mmol/L EDTA, 2 mmol/L MgCl2, 0.1% (v/v) protease inhibitor (PI) (Nakalai Tesque, Japan), 2 mmol/L β-mercaptoethanol, 10 mmol/L Tris–HCl, pH 7.8, and centrifuged at 1500 g for 2 min at 4 °C. […] The concentrations of NEs were determined by DNA concentrations calculated from the absorbance at 260 nm.
The GST alone control, GST-tagged protein (TRIM66^820–909) was bound to glutathione-Sepharose beads (Cytiva Life Sciences) in a buffer of 20 mmol/L Tris, 200 mmol/L NaCl, and 1 mmol/L DTT at pH 7.5, and incubated at 4 °C for 4 h. […] The proteins captured by beads were eluted and analyzed by SDS-PAGE and western blot.

With `OCCCCCCO` [1,6-hexanediol] the “effect on mEGFP-TRIM66 and mCherry-HP1γ condensates” value [1] was “depolymerized and the fluorescence signal was evenly distributed in the entire nucleus”.

For `CC[C@H](C)[C@H](NC(=O)[C@H](CCCCN)NC(=O)[C@H](Cc1c[nH]cn1)NC(=O)[C@@H](N)CCC(=O)O)C(=O)N1CCC[C@H]1C(=O)N[C@@H](Cc1ccc(O)cc1)C(=O)N[C@H](C(=O)N[C@@H](CCCNC(=N)N)C(=O)N[C@@H](CC(C)C)C(=O)N[C@@H](CCC(=O)O)C(=O)N[C@@H](CCCNC(=N)N)C(=O)N[C@@H](CC(C)C)C(=O)N[C@@H](CCCCN)C(=O)O)C(C)C` [TRIM66^856-868] (H-EHKIPYVRLERLK-OH), the Kd [2] was 1360 ± 109 nM, the KD [3] was “No binding” and the Kd [4] was 280 ± 20 nM. The KD [5] was “No binding”, the Kd [6] was 2050 ± 38 nM and the KD [7] was “No binding”.

Molecule “TRIM66 PxVxL motif peptide (residues 856-868)” has a Kd [8] of 280 nM and a stoichiometry N (HP1γ-CSD per TRIM66 peptide (2:1)) [8] of 2.

B1: GST-TRIM66^820-909: GST-tagged TRIM66 residues 820–909, which contains HP1γ-CSD binding motif (protein, UniProt O15016 820-909, looked up, fragment)
chain: NLISDSPQAMASLASDHPQAGPSLMSGHTQAVPSLATCPLQSIPPVSDMQPETGSSSSSGRTSGSLCPRDGADPSLENALCKMESEDSTR
modifications: GST tag
In the case of B1, the “complex formation with HP1γ and NE (GST pull-down)” value [9] is reported as “can form stable complexes”.

From paper PMC11891075, “TRIM66-HP1γ remodels the chromatin through phase separation” (Biophysics Reports, 2025)
